Assay results as given in PubChem BioAssay (NCI).
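Step 1: Grow cells in 96-well plates. Step 2: Expose to compound for 48 hours at 5 concentrations. Step 3: Interpolate endpoints linearly; if unreached, use highest concentration. TGI denotes the concentration required for complete inhibition of growth.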

Legend:
Assay in all cases: NCI-60 cell line screen, 48 h
CCRF-CEM leukemia = test system: CCRF-CEM leukemia
DMS 273 small cell lung = test system: DMS 273 small cell lung
M19-MEL melanoma = test system: M19-MEL melanoma
SNB-19 CNS = test system: SNB-19 CNS
NCI-H226 lung = test system: NCI-H226 lung
M14 melanoma = test system: M14 melanoma
NCI-H522 lung = test system: NCI-H522 lung
HCT-15 colon = test system: HCT-15 colon
COLO 205 colon = test system: COLO 205 colon
SK-OV-3 ovarian = test system: SK-OV-3 ovarian
KM12 colon = test system: KM12 colon
SN12C renal = test system: SN12C renal
OVCAR-3 ovarian = test system: OVCAR-3 ovarian
XF 498 CNS = test system: XF 498 CNS
SK-MEL-5 melanoma = test system: SK-MEL-5 melanoma
HOP-62 NSCLC = test system: HOP-62 NSCLC
LOX IMVI melanoma = test system: LOX IMVI melanoma
A549 NSCLC = test system: A549 NSCLC
SF-268 CNS = test system: SF-268 CNS
HL-60(TB) leukemia = test system: HL-60(TB) leukemia
HCC-2998 colon = test system: HCC-2998 colon
DMS 114 small cell lung = test system: DMS 114 small cell lung
HT29 colon = test system: HT29 colon
SR leukemia = test system: SR leukemia
ACHN renal = test system: ACHN renal
SK-MEL-28 melanoma = test system: SK-MEL-28 melanoma
EKVX NSCLC = test system: EKVX NSCLC
SF-539 CNS = test system: SF-539 CNS
RPMI-8226 leukemia = test system: RPMI-8226 leukemia
MALME-3M melanoma = test system: MALME-3M melanoma
SF-295 CNS = test system: SF-295 CNS
HCT-116 colon = test system: HCT-116 colon
OVCAR-8 ovarian = test system: OVCAR-8 ovarian
K-562 leukemia = test system: K-562 leukemia
NCI-H23 lung = test system: NCI-H23 lung
IGROV1 ovarian = test system: IGROV1 ovarian
UO-31 renal = test system: UO-31 renal
U251 CNS = test system: U251 CNS
MOLT-4 leukemia = test system: MOLT-4 leukemia
LXFL 529 NSCLC = test system: LXFL 529 NSCLC
KM20L2 colon = test system: KM20L2 colon
NCI-H460 lung = test system: NCI-H460 lung
SW-620 colon = test system: SW-620 colon
786-0 renal = test system: 786-0 renal
SK-MEL-2 melanoma = test system: SK-MEL-2 melanoma
RXF 393 renal = test system: RXF 393 renal
HOP-18 NSCLC = test system: HOP-18 NSCLC
SNB-78 CNS = test system: SNB-78 CNS
UACC-62 melanoma = test system: UACC-62 melanoma
OVCAR-4 ovarian = test system: OVCAR-4 ovarian
TK-10 renal = test system: TK-10 renal
SNB-75 CNS = test system: SNB-75 CNS
UACC-257 melanoma = test system: UACC-257 melanoma

CCCCc1c2c(nc3c1CCCC3=O)CCCC2
TGI (CCRF-CEM leukemia): > 100 µM | TGI (DMS 273 small cell lung): > 100 µM | TGI (M19-MEL melanoma): > 100 µM | TGI (SNB-19 CNS): > 100 µM | TGI (NCI-H226 lung): 65.6 µM | TGI (M14 melanoma): > 100 µM | TGI (NCI-H522 lung): > 100 µM | TGI (HCT-15 colon): > 100 µM | TGI (COLO 205 colon): > 100 µM | TGI (SK-OV-3 ovarian): > 100 µM | TGI (KM12 colon): > 100 µM | TGI (SN12C renal): > 100 µM | TGI (OVCAR-3 ovarian): > 100 µM | TGI (XF 498 CNS): > 100 µM | TGI (SK-MEL-5 melanoma): > 100 µM | TGI (HOP-62 NSCLC): > 100 µM | TGI (LOX IMVI melanoma): > 100 µM | TGI (A549 NSCLC): > 100 µM | TGI (SF-268 CNS): > 100 µM | TGI (HL-60(TB) leukemia): > 100 µM | TGI (HCC-2998 colon): > 100 µM | TGI (DMS 114 small cell lung): > 100 µM | TGI (HT29 colon): > 100 µM | TGI (SR leukemia): > 100 µM | TGI (ACHN renal): > 100 µM | TGI (SK-MEL-28 melanoma): > 100 µM | TGI (EKVX NSCLC): > 100 µM | TGI (SF-539 CNS): > 100 µM | TGI (RPMI-8226 leukemia): > 100 µM | TGI (MALME-3M melanoma): 98.4 µM | TGI (SF-295 CNS): > 100 µM | TGI (HCT-116 colon): > 100 µM | TGI (OVCAR-8 ovarian): > 100 µM | TGI (K-562 leukemia): > 100 µM | TGI (NCI-H23 lung): > 100 µM | TGI (IGROV1 ovarian): > 100 µM | TGI (UO-31 renal): > 100 µM | TGI (U251 CNS): > 100 µM | TGI (MOLT-4 leukemia): > 100 µM | TGI (LXFL 529 NSCLC): > 100 µM | TGI (KM20L2 colon): > 100 µM | TGI (NCI-H460 lung): > 100 µM | TGI (SW-620 colon): > 100 µM | TGI (786-0 renal): > 100 µM

O=C(CSc1nnc(-c2ccc(N=Cc3ccc(Cl)cc3)cc2)o1)Nc1cccc([N+](=O)[O-])c1
TGI (CCRF-CEM leukemia): > 100 µM | TGI (SK-MEL-2 melanoma): > 100 µM | TGI (DMS 273 small cell lung): > 100 µM | TGI (M19-MEL melanoma): > 100 µM | TGI (RXF 393 renal): > 100 µM | TGI (SNB-19 CNS): > 100 µM | TGI (NCI-H226 lung): > 100 µM | TGI (M14 melanoma): > 100 µM | TGI (NCI-H522 lung): > 100 µM | TGI (HOP-18 NSCLC): > 100 µM | TGI (HCT-15 colon): > 100 µM | TGI (SNB-78 CNS): > 100 µM | TGI (COLO 205 colon): > 100 µM | TGI (SK-OV-3 ovarian): > 100 µM | TGI (KM12 colon): > 100 µM | TGI (SN12C renal): > 100 µM | TGI (SK-MEL-5 melanoma): > 100 µM | TGI (HOP-62 NSCLC): > 100 µM | TGI (LOX IMVI melanoma): > 100 µM | TGI (A549 NSCLC): > 100 µM | TGI (SF-268 CNS): > 100 µM | TGI (HL-60(TB) leukemia): > 100 µM | TGI (DMS 114 small cell lung): > 100 µM | TGI (HT29 colon): > 100 µM | TGI (SR leukemia): > 100 µM | TGI (ACHN renal): > 100 µM | TGI (SK-MEL-28 melanoma): > 100 µM | TGI (UACC-62 melanoma): > 100 µM | TGI (EKVX NSCLC): > 100 µM | TGI (OVCAR-4 ovarian): > 100 µM | TGI (RPMI-8226 leukemia): > 100 µM | TGI (TK-10 renal): > 100 µM | TGI (MALME-3M melanoma): > 100 µM | TGI (SF-295 CNS): > 100 µM | TGI (HCT-116 colon): > 100 µM | TGI (OVCAR-8 ovarian): > 100 µM | TGI (SNB-75 CNS): > 100 µM | TGI (K-562 leukemia): > 100 µM | TGI (NCI-H23 lung): > 100 µM | TGI (UO-31 renal): > 100 µM | TGI (U251 CNS): > 100 µM | TGI (MOLT-4 leukemia): > 100 µM | TGI (UACC-257 melanoma): > 100 µM | TGI (LXFL 529 NSCLC): > 100 µM | TGI (KM20L2 colon): > 100 µM | TGI (NCI-H460 lung): > 100 µM | TGI (SW-620 colon): > 100 µM | TGI (786-0 renal): > 100 µM
